Assay results taken from ChEMBL document CHEMBL1208723, “Synthesis and activity of polyacetylene substituted 2-hydroxy acids, esters, and amides against microbes of clinical importance” (Bioorg Med Chem Lett, 2010).
Blank lines part the entries; values can stand above or below the compound they belong to.

Assays:
Nakaseomyces glabratus = experiment: Antifungal activity against Candida glabrata; assay type: functional, organism-based
Pichia kudriavzevii = experiment: Antifungal activity against Candida krusei; assay type: functional, organism-based
Candida tropicalis = experiment: Antifungal activity against Candida tropicalis; assay type: functional, organism-based
Candida albicans = experiment: Antifungal activity against Candida albicans; assay type: functional, organism-based
Candida parapsilosis = experiment: Antifungal activity against Candida parapsilosis; assay type: functional, organism-based
Escherichia coli = experiment: Antibacterial activity against Escherichia coli ATCC 25922; assay type: functional; further: test concentration or dose not given here
Staphylococcus aureus [1] = experiment: Antibacterial activity against Staphylococcus aureus ATCC 25923; assay type: functional; further: test concentration or dose not given here
Streptococcus pyogenes = experiment: Antibacterial activity against Streptococcus pyogenes ATCC 19615; assay type: functional; further: test concentration or dose not given here
Pseudomonas aeruginosa = experiment: Antibacterial activity against Pseudomonas aeruginosa ATCC 27853; assay type: functional; further: test concentration or dose not given here
Staphylococcus aureus [2] = experiment: Antibacterial activity against methicillin-resistant Staphylococcus aureus; assay type: functional; further: test concentration or dose not given here
[3] = Nakaseomyces glabratus, read-out: IC50
[4] = Lodderomyces parapsilosis, read-out: IC50
[5] = Candida albicans, read-out: IC50
[6] = Pichia kudriavzevii, read-out: IC50
[7] = Candida tropicalis, read-out: IC50

Compound: CCCCCC/C=C\C#CC#CCCCCC(O)C(=O)OC (stereo not drawn)
IC50 (Nakaseomyces glabratus; [3]): 1000 µM | IC50 (Pichia kudriavzevii): Not Active | IC50 (Candida tropicalis): Not Active | IC50 (Candida albicans): Not Active | IC50 (Candida parapsilosis; [4]): 30 µM | inhibition (INH) (Escherichia coli): 25% | inhibition (INH) (Staphylococcus aureus [1]): 50% | inhibition (INH) (Streptococcus pyogenes): >75% | inhibition (INH) (Pseudomonas aeruginosa): >75% | inhibition (INH) (Staphylococcus aureus [2]): >75%

Compound: CCCC#C/C=C\C#CCCCCCC(O)C(=O)OCCCc1ccccc1 (stereo not drawn)
IC50 (Nakaseomyces glabratus): Not Active | IC50 (Pichia kudriavzevii): Not Active | IC50 (Candida tropicalis): Not Active | IC50 (Candida albicans): Not Active | IC50 (Candida parapsilosis): Not Active | inhibition (INH) (Escherichia coli): 50% | inhibition (INH) (Staphylococcus aureus [1]): 25% | inhibition (INH) (Streptococcus pyogenes): >75% | inhibition (INH) (Pseudomonas aeruginosa): >75% | inhibition (INH) (Staphylococcus aureus [2]): 25%

Compound: CCCCC#CC#C/C=C/CCCCCCC(O)C(=O)OC(C)C (stereo not drawn)
IC50 (Nakaseomyces glabratus): Not Active | IC50 (Pichia kudriavzevii): Not Active | IC50 (Candida tropicalis): Not Active | IC50 (Candida albicans): Not Active | IC50 (Candida parapsilosis): Not Active | inhibition (INH) (Escherichia coli): 50% | inhibition (INH) (Staphylococcus aureus [1]): 25% | inhibition (INH) (Streptococcus pyogenes): >75% | inhibition (INH) (Pseudomonas aeruginosa): >75% | inhibition (INH) (Staphylococcus aureus [2]): 50%

Compound: CCCCCC#CC#C/C=C/CCCCCC(O)C(=O)OC (stereo not drawn)
IC50 (Nakaseomyces glabratus; [3]): 500 µM | IC50 (Pichia kudriavzevii): Not Active | IC50 (Candida tropicalis): Not Active | IC50 (Candida albicans; [5]): 1000 µM | IC50 (Candida parapsilosis): Not Active | inhibition (INH) (Escherichia coli): 50% | inhibition (INH) (Staphylococcus aureus [1]): 25% | inhibition (INH) (Streptococcus pyogenes): >75% | inhibition (INH) (Pseudomonas aeruginosa): >75% | inhibition (INH) (Staphylococcus aureus [2]): >75%

Compound: CCCCC#CC#C/C=C/CCCCCCC(O)C(=O)NCc1ccccc1 (stereo not drawn)
IC50 (Nakaseomyces glabratus): Not Active | IC50 (Pichia kudriavzevii): Not Active | IC50 (Candida tropicalis): Not Active | IC50 (Candida albicans): Not Active | IC50 (Candida parapsilosis): Not Active | inhibition (INH) (Escherichia coli): 50% | inhibition (INH) (Staphylococcus aureus [1]): 25% | inhibition (INH) (Streptococcus pyogenes): >75% | inhibition (INH) (Pseudomonas aeruginosa): >75% | inhibition (INH) (Staphylococcus aureus [2]): 50%

Compound: CCCC/C=C\C#CC#CCCCCCC(O)C(=O)NCC(C)C (stereo not drawn)
IC50 (Nakaseomyces glabratus): Not Active | IC50 (Pichia kudriavzevii): Not Active | IC50 (Candida tropicalis): Not Active | IC50 (Candida albicans): Not Active | IC50 (Candida parapsilosis): Not Active | inhibition (INH) (Escherichia coli): 50% | inhibition (INH) (Staphylococcus aureus [1]): 50% | inhibition (INH) (Streptococcus pyogenes): >75% | inhibition (INH) (Pseudomonas aeruginosa): >75% | inhibition (INH) (Staphylococcus aureus [2]): >75%

Compound: CCCCCC#C/C=C\C#CC[C@@H]1O[C@](C)(OC)[C@@](C)(OC)OC1=O
IC50 (Nakaseomyces glabratus): Not Active | IC50 (Pichia kudriavzevii): Not Active | IC50 (Candida tropicalis): Not Active | IC50 (Candida albicans): Not Active | IC50 (Candida parapsilosis): Not Active | inhibition (INH) (Escherichia coli): 50% | inhibition (INH) (Staphylococcus aureus [1]): 25% | inhibition (INH) (Streptococcus pyogenes): >75% | inhibition (INH) (Pseudomonas aeruginosa): >75% | inhibition (INH) (Staphylococcus aureus [2]): 25%

Compound: CCCC#C/C=C\C#CCCCCC[C@@H]1O[C@](C)(OC)[C@@](C)(OC)OC1=O
IC50 (Nakaseomyces glabratus): Not Active | IC50 (Pichia kudriavzevii): Not Active | IC50 (Candida tropicalis): Not Active | IC50 (Candida albicans): Not Active | IC50 (Candida parapsilosis): Not Active | inhibition (INH) (Escherichia coli): 50% | inhibition (INH) (Staphylococcus aureus [1]): 25% | inhibition (INH) (Streptococcus pyogenes): >75% | inhibition (INH) (Pseudomonas aeruginosa): >75% | inhibition (INH) (Staphylococcus aureus [2]): 25%

Compound: CCCCC#CC#C/C=C/CCCCCC[C@@H]1O[C@](C)(OC)[C@@](C)(OC)OC1=O
IC50 (Nakaseomyces glabratus): Not Active | IC50 (Pichia kudriavzevii): Not Active | IC50 (Candida tropicalis): Not Active | IC50 (Candida albicans): Not Active | IC50 (Candida parapsilosis): Not Active | inhibition (INH) (Escherichia coli): 50% | inhibition (INH) (Staphylococcus aureus [1]): 25% | inhibition (INH) (Streptococcus pyogenes): >75% | inhibition (INH) (Pseudomonas aeruginosa): >75% | inhibition (INH) (Staphylococcus aureus [2]): 25%

Compound: CCCCC/C=C\C#CC#CCCCCC[C@@H]1O[C@](C)(OC)[C@@](C)(OC)OC1=O
IC50 (Nakaseomyces glabratus): Not Active | IC50 (Pichia kudriavzevii): Not Active | IC50 (Candida tropicalis): Not Active | IC50 (Candida albicans): Not Active | IC50 (Candida parapsilosis): Not Active | inhibition (INH) (Escherichia coli): 50% | inhibition (INH) (Staphylococcus aureus [1]): 50% | inhibition (INH) (Streptococcus pyogenes): >75% | inhibition (INH) (Pseudomonas aeruginosa): >75% | inhibition (INH) (Staphylococcus aureus [2]): 25%

Compound: CCCC#CC#CC#CCCCCC[C@@H]1O[C@](C)(OC)[C@@](C)(OC)OC1=O
IC50 (Nakaseomyces glabratus): Not Active | IC50 (Pichia kudriavzevii): Not Active | IC50 (Candida tropicalis): Not Active | IC50 (Candida albicans): Not Active | IC50 (Candida parapsilosis): Not Active | inhibition (INH) (Escherichia coli): >75% | inhibition (INH) (Staphylococcus aureus [1]): 50% | inhibition (INH) (Streptococcus pyogenes): >75% | inhibition (INH) (Pseudomonas aeruginosa): >75% | inhibition (INH) (Staphylococcus aureus [2]): 25%

Compound: O=C(O)C(O)CCCCCCC#C/C=C\C#Cc1ccco1 (stereo not drawn)
IC50 (Nakaseomyces glabratus): Not Active | IC50 (Pichia kudriavzevii): Not Active | IC50 (Candida tropicalis): Not Active | IC50 (Candida albicans): Not Active | IC50 (Candida parapsilosis; [4]): 500 µM | inhibition (INH) (Escherichia coli): >75% | inhibition (INH) (Staphylococcus aureus [1]): >75% | inhibition (INH) (Streptococcus pyogenes): >75% | inhibition (INH) (Pseudomonas aeruginosa): >75% | inhibition (INH) (Staphylococcus aureus [2]): 25%

Compound: CCCCC#C/C=C\C#CCCCCCCC(O)C(=O)O (stereo not drawn)
IC50 (Nakaseomyces glabratus): Not Active | IC50 (Pichia kudriavzevii): Not Active | IC50 (Candida tropicalis): Not Active | IC50 (Candida albicans): Not Active | IC50 (Candida parapsilosis; [4]): 500 µM | inhibition (INH) (Escherichia coli): >75% | inhibition (INH) (Staphylococcus aureus [1]): >75% | inhibition (INH) (Streptococcus pyogenes): >75% | inhibition (INH) (Pseudomonas aeruginosa): >75%

Compound: CCCCCC#C/C=C\C#CCCCCCC(O)C(=O)O (stereo not drawn)
IC50 (Nakaseomyces glabratus): Not Active | IC50 (Pichia kudriavzevii): Not Active | IC50 (Candida tropicalis): Not Active | IC50 (Candida albicans): Not Active | IC50 (Candida parapsilosis): Not Active | inhibition (INH) (Escherichia coli): 50% | inhibition (INH) (Staphylococcus aureus [1]): >75% | inhibition (INH) (Streptococcus pyogenes): >75% | inhibition (INH) (Pseudomonas aeruginosa): >75%

Compound: CCCC#C/C=C\C#CCCCCCC(O)C(=O)O (stereo not drawn)
IC50 (Nakaseomyces glabratus): Not Active | IC50 (Pichia kudriavzevii): Not Active | IC50 (Candida tropicalis): Not Active | IC50 (Candida albicans): Not Active | IC50 (Candida parapsilosis): Not Active | inhibition (INH) (Escherichia coli): 50% | inhibition (INH) (Staphylococcus aureus [1]): >75% | inhibition (INH) (Streptococcus pyogenes): >75% | inhibition (INH) (Pseudomonas aeruginosa): >75%

IC50 (Nakaseomyces glabratus): Not Active | IC50 (Pichia kudriavzevii): Not Active | IC50 (Candida tropicalis): Not Active | IC50 (Candida albicans): Not Active | IC50 (Candida parapsilosis): Not Active
Compound: CCCCC#CC#C/C=C\CCCCCCC(O)C(=O)O (stereo not drawn)
inhibition (INH) (Staphylococcus aureus [1]): 25% | inhibition (INH) (Pseudomonas aeruginosa): >75%

IC50 (Nakaseomyces glabratus; [3]): 500 µM | IC50 (Pichia kudriavzevii; [6]): 500 µM | IC50 (Candida tropicalis; [7]): 500 µM | IC50 (Candida albicans; [5]): 500 µM | IC50 (Candida parapsilosis; [4]): 250 µM
Compound: CCCCC#CC#C/C=C/CCCCCCC(O)C(=O)O (stereo not drawn)
inhibition (INH) (Staphylococcus aureus [1]): 50% | inhibition (INH) (Streptococcus pyogenes): 25% | inhibition (INH) (Pseudomonas aeruginosa): >75%

Compound: CCCCCC#CC#C/C=C/CCCCCC(O)C(=O)O (stereo not drawn)
IC50 (Nakaseomyces glabratus; [3]): 500 µM | IC50 (Pichia kudriavzevii; [6]): 500 µM | IC50 (Candida tropicalis; [7]): 500 µM | IC50 (Candida albicans; [5]): 500 µM | IC50 (Candida parapsilosis; [4]): 2 µM | inhibition (INH) (Escherichia coli): 25% | inhibition (INH) (Streptococcus pyogenes): 50% | inhibition (INH) (Pseudomonas aeruginosa): >75% | inhibition (INH) (Staphylococcus aureus [2]): >75%

Compound: CCCCC/C=C\C#CC#CCCCCCC(O)C(=O)O (stereo not drawn)
IC50 (Nakaseomyces glabratus; [3]): 500 µM | IC50 (Pichia kudriavzevii; [6]): 1000 µM | IC50 (Candida tropicalis; [7]): 1000 µM | IC50 (Candida albicans): Not Active | IC50 (Candida parapsilosis; [4]): 2 µM | inhibition (INH) (Escherichia coli): >75% | inhibition (INH) (Staphylococcus aureus [1]): >75% | inhibition (INH) (Streptococcus pyogenes): >75% | inhibition (INH) (Pseudomonas aeruginosa): >75%

Compound: CCCCCC#CC#CC#CCCCCCC(O)C(=O)O (stereo not drawn)
IC50 (Nakaseomyces glabratus; [3]): 500 µM | IC50 (Pichia kudriavzevii; [6]): 500 µM | IC50 (Candida tropicalis; [7]): 500 µM | IC50 (Candida albicans): Not Active | IC50 (Candida parapsilosis; [4]): 2 µM | inhibition (INH) (Escherichia coli): >75% | inhibition (INH) (Staphylococcus aureus [1]): >75% | inhibition (INH) (Streptococcus pyogenes): 50% | inhibition (INH) (Pseudomonas aeruginosa): >75%

Compound: CCCC#CC#CC#CCCCCCC(O)C(=O)O (stereo not drawn)
IC50 (Nakaseomyces glabratus; [3]): 500 µM | IC50 (Pichia kudriavzevii; [6]): 500 µM | IC50 (Candida tropicalis; [7]): 500 µM | IC50 (Candida albicans; [5]): 500 µM | IC50 (Candida parapsilosis; [4]): 125 µM | inhibition (INH) (Escherichia coli): >75% | inhibition (INH) (Staphylococcus aureus [1]): >75% | inhibition (INH) (Streptococcus pyogenes): >75% | inhibition (INH) (Pseudomonas aeruginosa): >75%
